{"source": "paper PMC4792926", "about": "“G9a-mediated methylation of ERα links the PHF20/MOF histone acetyltransferase complex to hormonal gene expression” (Nature Communications, 2016)", "key": {"MCF-7 cells [1]": {"tested_on": "MCF-7 cells", "experiment": "Colony formation assay, MCF-7", "type": "cell-based, human", "description": "MCF-7 cells treated with shRNAs or BIX-01294 were seeded in six-well plates (1,000 cells per well) and grown in DMEM plus 10% FBS at 37 °C for 10–14 days. For anchorage-independent cell growth assays, 4,000 MCF-7 cells were suspended in DMEM containing 0.4% agar and seeded into six-well plates pre-coated with a base layer of 0.6% agar and grown at 37 °C for 4 weeks. Cells were fixed, stained with 0.005% crystal violet blue and photographed. Colony numbers were counted using ImageJ software with size cutoff of 75 μm. Results were quantitated from three to six wells or three to five views of each well from three independent replicates."}, "endogenous G9a": {"tested_on": "endogenous G9a", "experiment": "Global histone H3K9me2 western blot (endogenous G9a activity) in MCF-7 cells", "type": "cell-based, human", "settings": "4 and 8 μM for 24 h", "description": "(§1) Human MCF-7, T-47D, U2OS and HEK293T cells (ATCC) were cultured in DMEM (Cellgro) supplemented with 10% fetal bovine serum (FBS, Sigma). For G9a inhibitor treatment, BIX-01294 (Sigma) was added to the medium, at the indicated concentrations, 24 h before the cells were collected. For shRNA knockdown, 293T cells were co-transfected with pMD2.G and pPAX2 (Addgene) together with pLKO-shRNA constructs or a non-targeting pLKO-shRNA (pLKO-shCtrl). Viral supernatants were harvested after 48 h. For infections, MCF-7 or T-47D cells were incubated with viral supernatants in the presence of 8 μg ml^−1 polybrene. After 48 h, puromycin (2 μg ml^−1) was added to the DMEM. Cells were grown, with selection for 5–7 days to select for stable knockdown cells before oestrogen treatment. For oestrogen treatment, cells were starved in phenol red-free DMEM supplemented with 10% charcoal-stripped FBS (Sigma) for 3–4 days, and 10 nM 17β-estradiol (Sigma) or ethanol (vehicle) were added to the medium (3 or 6 h for gene expression studies, and 15 and 45 min for ChIP experiments) before the cells were collected."}, "[2]": {"tested_on": "G9a, PHF20 and ERα protein levels", "experiment": "Western blot of total G9a, PHF20 and ERα in whole cell extract, HEK-293T cells", "type": "cell-based, human", "settings": "24 h; WCE western blot", "description": "as §1"}, "[3]": {"tested_on": "ERα target genes (GREB1, PR, TFF1)", "experiment": "qPCR of E2-induced ERα target gene expression in MCF-7 cells", "type": "cell-based, human", "description": "as §1\n(§2) Reverse transcription and real-time PCR were performed as described previously. mRNA was prepared using the RNeasy Plus kit (Qiagen) and reverse transcribed using the First Strand Synthesis kit (Invitrogen). Quantitative real-time RT–PCR (qPCR) was performed on an ABI 7500-FAST Sequence Detection System using the Power SYBR Green PCR Master Mix (Applied Biosystems). Gene expression was calculated following normalization to GAPDH levels using the comparative Ct (cycle threshold) method and is shown as ‘Fold' relative to the expression of each gene in the control cells without E2 treatment that was arbitrarily set as ‘1'. The primer sequences used for RT–PCR are listed in Supplementary Table 5."}, "G9a": {"tested_on": "G9a", "settings": "cited from earlier work", "from_the_text": "Next, we sought to determine whether the methyltransferase activity of G9a is required for its co-activation of endogenous ERα target genes. […] (Supplementary Fig. 2a,b). Importantly, under these conditions, although a res ..."}, "MAGE-A2": {"tested_on": "MAGE-A2", "experiment": "qPCR of MAGE-A2, a G9a-repressed gene, in MCF-7 cells", "type": "cell-based, human", "settings": "4 and 8 μM for 24 h, mean +/- S.E.M. of two experiments", "description": "as §1, with “For oestrogen treatment, cells were starved in phenol red-free DMEM supplemented with 10% charcoal-stripped FBS (Sigma) for 3–4 days, and 10 nM 17β-estradiol (Sigma) or ethanol (vehicle) were added to the medium (3 or 6 h for gene expression studies, and 15 and 45 min for ChIP experiments) before the cells were collected.” left out\nas §2, with “The primer sequences used for RT–PCR are listed in Supplementary Table 5.” left out"}, "MCF-7 cells [4]": {"tested_on": "MCF-7 cells", "experiment": "MCF-7 cell proliferation (cell counting)", "type": "cell-based, human", "settings": "different doses; cell numbers counted for 6 days", "description": "Human MCF-7, T-47D, U2OS and HEK293T cells (ATCC) were cultured in DMEM (Cellgro) supplemented with 10% fetal bovine serum (FBS, Sigma). For G9a inhibitor treatment, BIX-01294 (Sigma) was added to the medium, at the indicated concentrations, 24 h before the cells were collected. For shRNA knockdown, 293T cells were co-transfected with pMD2.G and pPAX2 (Addgene) together with pLKO-shRNA constructs or a non-targeting pLKO-shRNA (pLKO-shCtrl). Viral supernatants were harvested after 48 h. For infections, MCF-7 or T-47D cells were incubated with viral supernatants in the presence of 8 μg ml^−1 polybrene. After 48 h, puromycin (2 μg ml^−1) was added to the DMEM. […]\n(a, b) Growth curves of control (shCtrl) and G9a knockdown (shG9a) MCF-7 cells. Cells from 6 wells were counted in triplicates every two days, for 8 days (a) or 6 days (b) after seeding.\n(c, d) G9a is required for cell growth in colony formation assays. […] Colonies arising from control and G9 knockdown MCF-7 cells were counted two weeks after seeding (d)\n(e) G9a depletion reduces the anchorage-independent growth of MCF-7 cells. […] After four weeks, colonies were counted. At least 5 fields of view were counted for each well.\n(f) The catalytic activity of G9a is required for cell growth. MCF-7 cells treated with the indicated doses of BIX-01249 were counted 6 days after seeding. […]"}, "PHF20–ERα interaction": {"tested_on": "PHF20–ERα interaction", "experiment": "Co-IP of ERα and PHF20 in HEK-293T cells", "type": "cell-based, human", "settings": "24 h before co-IP; Flag-ERα and Myc-PHF20 co-transfected HEK-293T", "description": "as §1\nFor immunoprecipitation (IP) experiments, each cell fraction was incubated with the anti-FLAG M2-conjugated agarose beads overnight at 4 °C. The beads were washed 3–6 times with cell lysis buffer, and the bound proteins were eluted in SDS buffer and analysed by western blot. […]"}}, "note": "“Also recorded” adds a separate entry of the source."}
{"compound": "COc1cc2nc(N3CCCN(C)CC3)nc(NC3CCN(Cc4ccccc4)CC3)c2cc1OC", "note": "[BIX-01294]", "values": [{"measurement": "colony formation", "setting": "MCF-7 cells [1]; 0.5 or 1 μM, 10–14 days, crystal violet", "result": "greatly suppressed colony formation"}, {"measurement": "cell survival", "setting": "MCF-7 cells [1]; indicated doses, MCF-7 colonies, at least three experiments", "result": "inhibits cell survival"}, {"measurement": "enzymatic activity of endogenous G9a (global H3K9 methylation levels)", "setting": "endogenous G9a", "result": "effectively inhibited; also recorded: reduces global H3K9me2 levels"}, {"measurement": "total levels of G9a, PHF20 and ERα", "setting": "[2]", "result": "not affected"}, {"measurement": "E2-induced activation of GREB1 and PR under BIX-01294", "setting": "[3]; 4 or 8 μM BIX-01294, 10 nM E2 for 3 h, qPCR, two experiments", "result": "clearly impaired by BIX-01294 in a dose-dependent manner; also recorded: inhibits E2-induced activation of GREB1 and PR"}, {"measurement": "residual E2-dependent response under BIX-01294", "setting": "[3]; BIX-01294-treated MCF-7 cells, E2", "result": "a residual E2 response was sufficient to maintain GREB1 gene expression; also recorded: there was still an E2-dependent response"}, {"measurement": "E2-dependent gene activation under BIX-01294", "setting": "[3]; MCF-7, BIX-01294-treated (discussion)", "result": "greatly reduced E2-dependent gene activation"}, {"measurement": "G9a inhibition selectivity", "setting": "G9a", "result": "selective G9a inhibitor"}, {"measurement": "derepression of MAGE-A2", "setting": "MAGE-A2", "result": "derepression of MAGE-A2; also recorded: induces the derepression"}, {"measurement": "cell proliferation", "setting": "MCF-7 cells [4]", "result": "inhibited cell proliferation in a dose-dependent manner"}, {"measurement": "PHF20–ERα interaction", "setting": "PHF20–ERα interaction", "result": "markedly diminished the PHF20–ERα interaction; also recorded: diminishes the interaction between ERα and PHF20 in cells"}]}
